From patent US20220235049A1, “SUBSTITUTED PYRROLO [2, 3-b] PYRIDINE AND PYRAZOLO [3,4-b] PYRIDINE DERIVATIVES AS PROTEIN KINASE INHIBITORS” (Fochon Pharmaceuticals, Ltd., priority 2019, published 2022)
Like-named read-outs stand apart in the source and are kept apart here.

Assays:
[1] = molecular target: T1, BTK (C481S) (Homo sapiens, UniProt Q06187, C481S); test: Kinase assay of BTK (C481S), [33P]-ATP filter-binding, at Reaction Biology Corporation; type: biochemical; details: 10 μM ATP, 20 min preincubation, 120 min reaction
T1 construct: purchased SignalChem B10-12CH
Experimental: The kinase activity of BTK (C481S) was assayed at Reaction Biology Corporation. The substrate in the BTK (C481S) reaction, pEY (poly[Glu:Tyr] (4:1)) (Sigma, Cat. #P7244-250MG), was prepared in fresh reaction buffer (20 mM Hepes (pH 7.5), 10 mM MgCl2, 1 mM EGTA, 0.02% Brij35, 0.02 mg/ml BSA, 0.1 mM Na3VO4, 2 mM DTT, 1% DMSO). BTK(C481S) (SignalChem, Cat. #B10-12CH) was delivered into the substrate solution and mixed gently. The final concentrations of BTK (C481S) and the substrate in the reaction mixture were 6 nM and 0.2 mg/ml, respectively. Compounds were tested in 10-point concentration/response mode with 3-fold serial dilution steps starting at 1 μM.
Compounds in 100% DMSO were delivered into the kinase reaction mixture by acoustic liquid delivery technology (Echo550; nanoliter range) and incubated for 20 min at room temperature. 10 μM [^33P]-ATP (ATP: Sigma, Cat #: A7699; [^33P]-ATP: Hartmann Analytic, Cat #: SCF-301-12) was delivered into the reaction mixture to initiate the reaction. The mixture was incubated for 120 min at room temperature. Radioactivity was detected utilizing a proprietary filter-binding method. Kinase activity data were expressed as the percent remaining kinase activity in test samples compared to vehicle (DMSO) reactions. IC50 values were obtained using GraphPad Prism software.
Select compounds prepared as described above were assayed according to the biological procedures described herein.

[2] = test system: DOHH2 cells; test: Cell proliferation assay in DOHH2 cells (MTS); type: cell-based; details: Homo sapiens, DOHH-2, 120 h
Procedure, shortened: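 DOHH2 cells at 5000/well were treated with compound at 1.5–10000 nM for 120 h at 37 °C, as a proxy for BTK inhibition. Proliferation was read by MTS for 2 h, stopped with SDS, and absorbance measured at 490 nm with 650 nm reference; IC50 was fitted from the curve.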

[3] = Pharmacokinetics in male Sprague-Dawley rats; type: in vivo; details: rat; for AUC(0-inf) / AUC(0-t) / clearance / half-life / Cmax / MRT last / Vd / Tmax: male, Sprague-Dawley, plasma; for Cmax: read-out: Cmax/C0; for MRT last: read-out: MRT0-t; for Vd: read-out: Vdss
Experimental: The purpose of this study was to determine the pharmacokinetics of Example 71 and Example 75 in male Sprague-Dawley rats (Supplied by Beijing Vital River Laboratory Animal Technology Co., Ltd.).
Animals in Group 1 were administered with Example 71 by single intravenous bolus injection at 1 mg/kg, which was formulated in 60% Phosal 50 PG (Lipoid, Batch #368315-3180028/009): 30% PEG400 (Sigma, Batch #MKCH6281): 10% Ethanol (Merck, Batch #K48244883634) at 1 mg/mL as a solution. Animals in Group 2 were administered with Example 71 by single oral gavage (PO) administration at 5 mg/kg, which was formulated in 60% Phosal 50 PG (Lipoid, Batch #368315-3180028/009): 30% PEG400 (Sigma, Batch #MKCH6281): 10% Ethanol (Merck, Batch #K48244883634) at 1 mg/mL as a solution. Blood samples were collected at 0.083, 0.25, 0.5, 1, 2, 4, 8, 12 and 24 hours post-dose. Concentrations of Example 71 in plasma were determined by LC/MS/MS (LC: Waters UPLC; MS: API4000).
Animals in Group 3 were administered with Example 75 by single intravenous bolus injection at 2 mg/kg, which was formulated in 10% DMSO (Sigma, Batch #LPC0S181): 60% PEG400 (Sigma, Batch #MKCH6281): 30% water at 2 mg/mL as a solution. Animals in Group 4 were administered with Example 75 by single oral gavage (PO) administration at 10 mg/kg, which was formulated in 10% DMSO (Sigma, Batch #LPC0S181): 60% PEG400 (Sigma, Batch #MKCH6281): 30% water at 2 mg/mL as a solution. Blood samples were collected at 0.083, 0.25, 0.5, 1, 2, 4, 8, 12 and 24 hours post-dose. Concentrations of Example 75 in plasma were determined by LC/MS/MS (LC: Waters UPLC; MS: Triple Quad 6500 plus).

T1 sequence (Q06187 whole entry C481S): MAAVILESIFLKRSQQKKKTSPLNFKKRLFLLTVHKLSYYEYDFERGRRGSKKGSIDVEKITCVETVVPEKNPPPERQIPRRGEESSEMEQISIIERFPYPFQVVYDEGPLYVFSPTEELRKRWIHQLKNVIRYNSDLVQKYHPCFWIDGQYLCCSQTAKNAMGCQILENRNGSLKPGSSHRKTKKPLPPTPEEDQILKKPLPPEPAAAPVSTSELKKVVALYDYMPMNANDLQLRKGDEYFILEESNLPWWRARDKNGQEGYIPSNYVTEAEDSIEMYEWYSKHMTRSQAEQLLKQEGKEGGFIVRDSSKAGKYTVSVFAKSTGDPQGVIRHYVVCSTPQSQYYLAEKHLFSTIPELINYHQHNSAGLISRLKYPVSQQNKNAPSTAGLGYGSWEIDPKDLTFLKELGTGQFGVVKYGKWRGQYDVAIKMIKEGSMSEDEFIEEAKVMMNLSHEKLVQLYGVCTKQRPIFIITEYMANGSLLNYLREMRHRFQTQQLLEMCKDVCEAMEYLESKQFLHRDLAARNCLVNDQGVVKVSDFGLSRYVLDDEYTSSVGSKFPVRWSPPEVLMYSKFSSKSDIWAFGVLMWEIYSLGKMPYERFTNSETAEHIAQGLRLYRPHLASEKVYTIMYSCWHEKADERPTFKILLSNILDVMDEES

Which results are given for CCOc1cnc2[nH]cc(C(=O)c3ccc(Oc4ccccc4F)cc3)c2c1N[C@@H]1CC[C@@H](CO)OC1 [Example 63, (5-ethoxy-4-(((3R,6S)-6-(hydroxymethyl)tetrahydro-2H-pyran-3-yl)amino)-1H-pyrrolo[2,3-b]pyridin-3-yl)(4-(2-fluorophenoxy)phenyl)methanone]?
IC50 [1]: 1 nM; IC50 [2]: 1 nM

Which IC50 [1] does the source give for COc1cnc2[nH]cc(C(=O)c3ccc(Oc4ccccc4)cc3Cl)c2c1N[C@@H]1CC[C@@H](CO)OC1 [Example 27, (2-chloro-4-phenoxyphenyl)(4-(((3R,6S)-6-(hydroxymethyl)tetrahydro-2H-pyran-3-yl)amino)-5-methoxy-1H-pyrrolo[2,3-b]pyridin-3-yl)methanone] here?
The IC50 was 1.12 nM.

What about the IC50 [2] of the same compound?
The IC50 was 1 nM.

What does the source list for O=C(c1ccc(Oc2ccccc2)cc1Cl)c1c[nH]c2nccc(N[C@@H]3CC[C@@H](CO)OC3)c12 [Example 2, (2-Chloro-4-phenoxyphenyl)(4-(((3R,6S)-6-(hydroxymethyl)tetrahydro-2H-pyran-3-yl)amino)-1H-pyrrolo[2,3-b]pyridin-3-yl)methanone]?
IC50 [1]: 2.22 nM; IC50 [2]: 26 nM

With CCOc1cnc2[nH]cc(C(=O)c3ccc(Oc4ccccc4)cc3Cl)c2c1N[C@@H]1CC[C@@H](CO)OC1 [Example 128, (2-chloro-4-phenoxyphenyl)(5-ethoxy-4-(((3R,6S)-6-(hydroxymethyl)tetrahydro-2H-pyran-3-yl)amino)-1H-pyrrolo[2,3-b]pyridin-3-yl)methanone] as the compound, how does the IC50 [1] read?
The IC50 was 0.972 nM.

And the IC50 [2]?
The IC50 was 1 nM.

What does the source list for COc1cnc2[nH]cc(C(=O)c3ccc(Oc4ccccc4F)cc3F)c2c1N[C@@H]1CC[C@@H](CO)OC1 [Example 75, (2-fluoro-4-(2-fluorophenoxy)phenyl)(4-(((3R,6S)-6-(hydroxymethyl)tetrahydro-2H-pyran-3-yl)amino)-5-methoxy-1H-pyrrolo[2,3-b]pyridin-3-yl)methanone]?
IC50 [2]: 1 nM; AUC(0-inf) ([3]; iv, 2 mg/kg): 10200 ng·h/mL; AUC(0-t) ([3]; iv, 2 mg/kg): 10100 ng·h/mL; clearance ([3]; iv, 2 mg/kg): 3.33 mL/min/kg; half-life ([3]; iv, 2 mg/kg): 2.56 h; Cmax ([3]; iv, 2 mg/kg): 6350 ng/mL; MRT last ([3]; iv, 2 mg/kg): 2.43 h; Vd ([3]; iv, 2 mg/kg): 0.489 L/kg; AUC(0-inf) ([3]; po, 10 mg/kg): 29000 ng·h/mL; AUC(0-t) ([3]; po, 10 mg/kg): 28900 ng·h/mL; Tmax ([3]; po, 10 mg/kg): 2.83 h; half-life ([3]; po, 10 mg/kg): 2.8 h; Cmax ([3]; po, 10 mg/kg): 4140 ng/mL; MRT last ([3]; po, 10 mg/kg): 5.58 h; F ([3]; po 10 mg/kg vs iv 2 mg/kg): 57.1%

Which results are given for CCOc1cnc2[nH]cc(C(=O)c3ccc(Oc4ccccc4F)cc3F)c2c1N[C@@H]1CC[C@@H](CO)OC1 [Example 71, (5-ethoxy-4-(((3R,6S)-6-(hydroxymethyl)tetrahydro-2H-pyran-3-yl)amino)-1H-pyrrolo[2,3-b]pyridin-3-yl)(2-fluoro-4-(2-fluorophenoxy)phenyl)methanone]?
IC50 [1]: 0.77 nM; IC50 [2]: 1 nM; AUC(0-inf) ([3]; iv, 1 mg/kg): 3770 ng·h/mL; AUC(0-t) ([3]; iv, 1 mg/kg): 3760 ng·h/mL; clearance ([3]; iv, 1 mg/kg): 4.7 mL/min/kg; half-life ([3]; iv, 1 mg/kg): 3.07 h; Cmax ([3]; iv, 1 mg/kg): 4360 ng/mL; MRT last ([3]; iv, 1 mg/kg): 1.93 h; Vd ([3]; iv, 1 mg/kg): 0.541 L/kg; AUC(0-inf) ([3]; po, 5 mg/kg): 10100 ng·h/mL; AUC(0-t) ([3]; po, 5 mg/kg): 10100 ng·h/mL; Tmax ([3]; po, 5 mg/kg): 4 h; half-life ([3]; po, 5 mg/kg): 2.74 h; Cmax ([3]; po, 5 mg/kg): 1680 ng/mL; MRT last ([3]; po, 5 mg/kg): 5.26 h; F ([3]; po 5 mg/kg vs iv 1 mg/kg): 53.7%

What does the source list for CCOc1cnc2[nH]cc(C(=O)c3ccc(Oc4ccccc4)cc3F)c2c1N[C@@H]1CC[C@@H](CO)OC1 [Example 176, (5-ethoxy-4-(((3R,6S)-6-(hydroxymethyl)tetrahydro-2H-pyran-3-yl)amino)-1H-pyrrolo[2,3-b]pyridin-3-yl)(2-fluoro-4-phenoxyphenyl)methanone]?
IC50 [1]: 0.455 nM; IC50 [2]: 1 nM

For Cc1cc(Oc2ccccc2F)ccc1C(=O)c1c[nH]c2ncc(F)c(N[C@@]34CO[C@H](CO)C3C4)c12 (single isomer, unassigned) [Example 179], which IC50 [2] is on record?
Its IC50 is 1 nM.

With COc1cc(Oc2ccccc2F)ccc1C(=O)c1c[nH]c2ncc(OC)c(N[C@@H]3CC[C@@H](CO)OC3)c12 [Example 81, (4-(2-fluorophenoxy)-2-methoxyphenyl)(4-(((3R,6S)-6-(hydroxymethyl)tetrahydro-2H-pyran-3-yl)amino)-5-methoxy-1H-pyrrolo[2,3-b]pyridin-3-yl)methanone] as the compound, how does the IC50 [2] read?
Its IC50 is 19 nM.

Which IC50 [1] does the source give for CCOc1cnc2[nH]cc(C(=O)c3ccc(Oc4ccccc4)cc3C)c2c1N[C@@H]1CC[C@@H](CO)OC1 [Example 127, (5-ethoxy-4-(((3R,6S)-6-(hydroxymethyl)tetrahydro-2H-pyran-3-yl)amino)-1H-pyrrolo[2,3-b]pyridin-3-yl)(2-methyl-4-phenoxyphenyl)methanone] here?
The IC50 was 0.959 nM.

What about the IC50 [2] of the same compound?
The IC50 was 1 nM.

Which IC50 [2] does the source give for Cc1cc(Oc2ccccc2F)ccc1C(=O)c1c[nH]c2ncc(C#N)c(N[C@@H]3CC[C@@H](CO)OC3)c12 [Example 48, 3-(4-(2-fluorophenoxy)-2-methylbenzoyl)-4-(((3R,6S)-6-(hydroxymethyl)tetrahydro-2H-pyran-3-yl)amino)-1H-pyrrolo[2,3-b]pyridine-5-carbonitrile] here?
Its IC50 is 1 nM.
